Data reported in patent US20090062388A1, “Use of acetyl L-carnitine for the preparation of a medication for the preventive therapy for pain” (Sigma-Tau Industrie Farmaceutiche Riunite S.p.A., priority 2001, published 2009).
Read-outs that look alike come from different tables or passages of the source.

Tests used:
Type in all cases: in vivo
[1] = system: Male Swiss Webster mice; test: Hot-plate test (thermal stimulus), licking latency
Procedure: The first experiment was the hot-plate test.
Male Swiss Webster mice weighing between 22 and 30 g were used.
The test was carried out according to O'Callaghan and Holtzman in J. Pharmacol. Exp. Ther. 197: 533-537, 1976.
According to this test, a stainless steel container is to be placed in a bain-marie at a temperature of 52.5° C.
The mouse was removed from the hot plate immediately upon the first sign of painful stimulus. The maximum latency time registered on the hot plate was 45 seconds.
The values of analgesia were determined at 15 minute-intervals.

[2] = system: Male Swiss Webster mice; test: Hyperalgesia induced by NMDA (hot plate)
Procedure: This test was carried out in compliance with what described in the rats by Davies and Inturrisi in J. Pharmacol. Exp. Ther., 289: 1048-1053, 1999, but was applied to the mice by us.
According to this test, the hyperalgesia, assessed through the hot plate test, is to be induced by intrathecal administration of an NMDA solution (1.64 μg/mouse; administered around 15 minutes after the last administration of acetyl L-carnitine).
The reduction in the pain threshold, which reaches its peak 15 minutes after the injection of NMDA, disappears within 30 minutes from the administration.

[3] = system: Male Swiss Webster mice; test: Kainic acid-induced hyperalgesia (hot plate)
Procedure: According to this test, the hyperalgesia—determined in the mice through the hot plate test—is induced by a solution of kainic acid (20 mg/kg, IP).

[4] = system: Male Swiss Webster mice; test: Rota-rod test (motor coordination)
Procedure: The rota rod test was carried out by means of an apparatus consisting of a platform and a 3 cm-diameter rotating rod (16-20 r.p.m.) with a non-slipping surface.
The integrity of the animals' motor coordination was determined according to the capacity of the mice to keep their balance on the rotating rod.
At various intervals after the treatment, the parameter considered was the number of falls of the animal within a 30 second-observation (Vaught et al., Neuropharmacol., 24: 211, 1985).

[5] = system: Male Swiss Webster mice; test: Hole board test (spontaneous motility, exploratory activity); settings: 14-day sub-chronic treatment SC 100 mg/kg BID; 5 minutes on board
Procedure: In the hole board test, the […] movements were recorded by two separate photocell systems, which recorded both the movements on the board (spontaneous motility) and how many times the mouse put its head into the holes on the surface (exploratory activity).
The mice were placed on the board one at a time and left free to explore both the surface and the holes for 5 minutes.

[6] = system: mice; settings: Acetyl L-carnitine 100 mg/kg BID SC 7 days
Procedure: The analgesia induced by the acetyl L-carnitine (100 mg/kg BID, SC for 7 days) was determined in presence of some antagonists of some neurotransmission systems deeply involved in the regulation of pain threshold, and in particular the naloxone (opioid antagonist), the CGP-35348 (GABAB antagonist) and the alpha-methyl-p-tyrosine (inhibitor of the synthesis of cathecolamines).
In agreement with the standard procedures known by the person skilled in the art, the doses used for any antagonist were the minimum required to prevent the analgesia induced by morphine (7 mg/kg SC) (1, 100 e 200 mg/kg IP), baclofen (4 mg/kg SC) and amphetamine (1 mg/kg SC) (non-reported data) respectively.

## CC(=O)O[C@H](CC(=O)[O-])C[N+](C)(C)C [Acetyl L-carnitine, acetyl L-carnitine]
[1]; 3 mg/ml in drinking water, after 7 days treatment
  Hot plate Licking latency: 17.8 ± 2.3 s
[1]; 3 mg/ml in drinking water, after 14 days treatment
  Hot plate Licking latency: 18.8 ± 2.5 s
[1]; 3 mg/ml in drinking water, before treatment
  Hot plate Licking latency: 13.8 ± 0.8 s
[1]; 30 mg/kg SC, acute and 30 mg/kg BID SC for 7 days
  analgesic effect in hot-plate test: had no analgesic effect
[1]; 100 mg/kg BID SC for 7 days
  antinociceptive effect in hot-plate test: statistically significant antinociceptive effect
[1]; 100 mg/kg BID administered for 14 days
  antinociceptive effect in hot-plate test: the test failed to be statistically significant
[1]; 1-8 hours from one single administration of 100 mg/kg SC
  pain threshold in hot-plate test: did not affect the pain threshold
[1]; 7-day sub-chronic treatment SC 30 mg/kg BID, 15 min after treatment
  Hot plate Licking latency: 16.3 ± 2.1 s
[1]; 7-day sub-chronic treatment SC 30 mg/kg BID, 30 min after treatment
  Hot plate Licking latency: 17.3 ± 1.9 s
[1]; 7-day sub-chronic treatment SC 30 mg/kg BID, 45 min after treatment
  Hot plate Licking latency: 15.2 ± 1.5 s
[1]; 7-day sub-chronic treatment SC 30 mg/kg BID, before treatment
  Hot plate Licking latency: 15.8 ± 1.3 s
[1]; 7-day sub-chronic treatment SC 100 mg/kg BID, 15 min after treatment
  Hot plate Licking latency: 22.1 ± 1.8^ sec
[1]; 7-day sub-chronic treatment SC 100 mg/kg BID, 30 min after treatment
  Hot plate Licking latency: 22.5 ± 1.9^ sec
[1]; 7-day sub-chronic treatment SC 100 mg/kg BID, 45 min after treatment
  Hot plate Licking latency: 22.2 ± 1.7^ sec
[1]; 7-day sub-chronic treatment SC 100 mg/kg BID, before treatment
  Hot plate Licking latency: 21.8 ± 1.1^ sec
[1]; 14-day sub-chronic treatment SC 100 mg/kg BID, 15 min after treatment
  Hot plate Licking latency: 22.1 ± 2.7 s
[1]; 14-day sub-chronic treatment SC 100 mg/kg BID, 30 min after treatment
  Hot plate Licking latency: 22.5 ± 2.1 s
[1]; 14-day sub-chronic treatment SC 100 mg/kg BID, 45 min after treatment
  Hot plate Licking latency: 23.4 ± 2.9 s
[1]; 14-day sub-chronic treatment SC 100 mg/kg BID, before treatment
  Hot plate Licking latency: 22.4 ± 1.4 s
[1]; 7 days after the end of the 14-day-treatment 100 mg/kg BID, 15 min after treatment
  Hot plate Licking latency: 21.1 ± 1.9^ sec
[1]; 7 days after the end of the 14-day-treatment 100 mg/kg BID, 30 min after treatment
  Hot plate Licking latency: 18.5 ± 1.8 s
[1]; 7 days after the end of the 14-day-treatment 100 mg/kg BID, 45 min after treatment
  Hot plate Licking latency: 19.0 ± 2.3 s
[1]; 7 days after the end of the 14-day-treatment 100 mg/kg BID, before treatment
  Hot plate Licking latency: 19.2 ± 1.6^ sec
[1]; 7 days after the last 14 day-series of injections, 100 mg/kg BID SC
  antinociceptive action in hot-plate test: persisted even 7 days after the last 14 day-series of injections
[1]; Acute SC treatment 100 mg/kg, 15 min after treatment
  Hot plate Licking latency: 17.3 ± 1.7 s
[1]; Acute SC treatment 100 mg/kg, 30 min after treatment
  Hot plate Licking latency: 16.8 ± 1.2 s
[1]; Acute SC treatment 100 mg/kg, 45 min after treatment
  Hot plate Licking latency: 15.2 ± 1.7 s
[1]; Acute SC treatment 100 mg/kg, before treatment
  Hot plate Licking latency: 13.9 ± 0.7 s
[1]; SC acute treatment 30 mg/kg, 15 min after treatment
  Hot plate Licking latency: 15.8 ± 1.8 s
[1]; SC acute treatment 30 mg/kg, 30 min after treatment
  Hot plate Licking latency: 16.5 ± 2.0 s
[1]; SC acute treatment 30 mg/kg, 45 min after treatment
  Hot plate Licking latency: 15.0 ± 2.1 s
[1]; SC acute treatment 30 mg/kg, before treatment
  Hot plate Licking latency: 14.2 ± 0.9 s
[1]; acute SC administration 100 mg/kg
  protective effect in hot-plate test: did not exert any protective effect
[1]; single SC treatment 100 mg/kg, 1 h after treatment
  Hot plate Licking latency: 15.8 ± 2.2 s
[1]; single SC treatment 100 mg/kg, 2 h after treatment
  Hot plate Licking latency: 14.7 ± 1.5 s
[1]; single SC treatment 100 mg/kg, 3 h after treatment
  Hot plate Licking latency: 15.6 ± 1.9 s
[1]; single SC treatment 100 mg/kg, 4 h after treatment
  Hot plate Licking latency: 14.1 ± 2.0 s
[1]; single SC treatment 100 mg/kg, 6 h after treatment
  Hot plate Licking latency: 15.2 ± 1.9 s
[1]; single SC treatment 100 mg/kg, 8 h after treatment
  Hot plate Licking latency: 14.9 ± 1.6 s
[1]; single SC treatment 100 mg/kg, before treatment
  Hot plate Licking latency: 14.5 ± 0.9 s
[1]; solution 3 mg/ml in bottle for 7 and 14 days
  pain threshold in hot-plate test: no increase in the pain threshold was observed
[2]; 30 mg/kg BID, IP or SC for 7 days (FIG. 7)
  effect on reduction in pain threshold induced by NMDA: not found to be active
[2]; 100 mg/kg BID, SC or IP for 7 days, NMDA 1.64 μg/mouse intrathecal (FIG. 7)
  effect on reduction in pain threshold induced by NMDA: anti-nociceptive effect
[3]; 7-day repeated administration started 48 hours after kainic acid 20 mg/kg IP (FIG. 6)
  reversal of kainic acid-induced hyperalgesia: capable to revert the hyperalgesia
[3]; single administration (FIG. 6bis)
  reversal of kainic acid-induced hyperalgesia: no anti-hyperalgesic effect
[4]; 100 mg/kg BID, SC or IP for 7 and 14 days
  Motor coordination (rota-rod): not different from motor coordination of the control mice
[4]; 7-day sub-chronic treatment IP 100 mg/kg BID, 15 min after treatment
  ROTA-ROD No. of falls in 30 seconds: 2.2 ± 0.4
[4]; 7-day sub-chronic treatment IP 100 mg/kg BID, 30 min after treatment
  ROTA-ROD No. of falls in 30 seconds: 1.5 ± 0.3
[4]; 7-day sub-chronic treatment IP 100 mg/kg BID, 45 min after treatment
  ROTA-ROD No. of falls in 30 seconds: 1.1 ± 0.3
[4]; 7-day sub-chronic treatment IP 100 mg/kg BID, before treatment
  ROTA-ROD No. of falls in 30 seconds: 3.6 ± 0.5
[4]; 14-day sub-chronic treatment IP 100 mg/kg BID, 15 min after treatment
  ROTA-ROD No. of falls in 30 seconds: 2.9 ± 0.3
[4]; 14-day sub-chronic treatment IP 100 mg/kg BID, 30 min after treatment
  ROTA-ROD No. of falls in 30 seconds: 1.7 ± 0.4
[4]; 14-day sub-chronic treatment IP 100 mg/kg BID, 45 min after treatment
  ROTA-ROD No. of falls in 30 seconds: 1.0 ± 0.3
[4]; 14-day sub-chronic treatment IP 100 mg/kg BID, before treatment
  ROTA-ROD No. of falls in 30 seconds: 3.9 ± 0.5
[5]
  EXPLORATORY ACTIVITY No. of movements: 52.3 ± 6.5
  LOCOMOTOR ACTIVITY No. of explorations: 24.0 ± 5.1
[6]; pre-treat. Alpha-M-p-T 200 mg/kg, after treatment 15 min
  Hot plate Licking latency: 22.5 ± 2.0 s
[6]; pre-treat. Alpha-M-p-T 200 mg/kg, after treatment 30 min
  Hot plate Licking latency: 21.5 ± 1.7 s
[6]; pre-treat. Alpha-M-p-T 200 mg/kg, after treatment 45 min
  Hot plate Licking latency: 21.6 ± 1.5^ sec
[6]; pre-treat. Alpha-M-p-T 200 mg/kg, before treatment
  Hot plate Licking latency: 22.0 ± 1.3 s
[6]; pre-treat. Atropine 5 mg/kg, after treatment 15 min
  Hot plate Licking latency: 11.4 ± 1.7° sec
[6]; pre-treat. Atropine 5 mg/kg, after treatment 30 min
  Hot plate Licking latency: 12.6 ± 1.9° sec
[6]; pre-treat. Atropine 5 mg/kg, after treatment 45 min
  Hot plate Licking latency: 12.8 ± 1.3° sec
[6]; pre-treat. Atropine 5 mg/kg, before treatment
  Hot plate Licking latency: 21.2 ± 1.0^ sec
[6]; pre-treat. CGP 35348 100 mg/kg, after treatment 15 min
  Hot plate Licking latency: 21.1 ± 1.2^ sec
[6]; pre-treat. CGP 35348 100 mg/kg, after treatment 30 min
  Hot plate Licking latency: 21.0 ± 2.1^ sec
[6]; pre-treat. CGP 35348 100 mg/kg, after treatment 45 min
  Hot plate Licking latency: 20.3 ± 1.9^ sec
[6]; pre-treat. CGP 35348 100 mg/kg, before treatment
  Hot plate Licking latency: 22.1 ± 0.7 s
[6]; pre-treat. HC-3 1 μg ICV, after treatment 15 min
  Hot plate Licking latency: 14.6 ± 1.3° sec
[6]; pre-treat. HC-3 1 μg ICV, after treatment 30 min
  Hot plate Licking latency: 14.0 ± 1.8° sec
[6]; pre-treat. HC-3 1 μg ICV, after treatment 45 min
  Hot plate Licking latency: 15.5 ± 1.9° sec
[6]; pre-treat. HC-3 1 μg ICV, before treatment
  Hot plate Licking latency: 22.0 ± 1.1^ sec
[6]; pre-treat. Naloxone 1 mg/kg, after treatment 15 min
  Hot plate Licking latency: 22.3 ± 1.9 s
[6]; pre-treat. Naloxone 1 mg/kg, after treatment 30 min
  Hot plate Licking latency: 22.1 ± 2.0 s
[6]; pre-treat. Naloxone 1 mg/kg, after treatment 45 min
  Hot plate Licking latency: 20.6 ± 1.2^ sec
[6]; pre-treat. Naloxone 1 mg/kg, before treatment
  Hot plate Licking latency: 22.6 ± 0.6 s
[6]; pre-treat. Pirenzepine 0.1 μg ICV, after treatment 15 min
  Hot plate Licking latency: 16.5 ± 1.8° sec
[6]; pre-treat. Pirenzepine 0.1 μg ICV, after treatment 30 min
  Hot plate Licking latency: 14.3 ± 2.0° sec
[6]; pre-treat. Pirenzepine 0.1 μg ICV, after treatment 45 min
  Hot plate Licking latency: 17.1 ± 1.6° sec
[6]; pre-treat. Pirenzepine 0.1 μg ICV, before treatment
  Hot plate Licking latency: 21.6 ± 1.3^ sec
[6]; pre-treat. S-(−)-ET-126 0.1 μg ICV, after treatment 15 min
  Hot plate Licking latency: 15.8 ± 2.2° sec
[6]; pre-treat. S-(−)-ET-126 0.1 μg ICV, after treatment 30 min
  Hot plate Licking latency: 16.9 ± 2.3° sec
[6]; pre-treat. S-(−)-ET-126 0.1 μg ICV, after treatment 45 min
  Hot plate Licking latency: 15.8 ± 1.8° sec
[6]; pre-treat. S-(−)-ET-126 0.1 μg ICV, before treatment
  Hot plate Licking latency: 22.9 ± 1.3^ sec
[6]; pre-treat. physiological solution 10 ml/kg, after treatment 15 min
  Hot plate Licking latency: 22.6 ± 1.3 s
[6]; pre-treat. physiological solution 10 ml/kg, after treatment 30 min
  Hot plate Licking latency: 22.5 ± 1.3 s
[6]; pre-treat. physiological solution 10 ml/kg, after treatment 45 min
  Hot plate Licking latency: 22.9 ± 1.6^ sec
[6]; pre-treat. physiological solution 10 ml/kg, before treatment
  Hot plate Licking latency: 21.8 ± 1.1 s
